Reference: US20260076939A1, “CHIRAL GAMMA LACTAM DERIVATIVE OR PHARMACEUTICALLY ACCEPTABLE SALT THEREOF, AND PREPARATION METHOD THEREFOR” (Korea University Research and Business Foundation, priority 2022, published 2026)
Counter-ions that a name gives are not always drawn.

Tests used:
SMAD2 = assay: Human skeletal myoblast (HSKM) differentiation induction test, ELISA: SMAD2; format: cell-based; conditions: compared to (R)-phenylpiracetam treatment group, FIG. 5(a)
Protocol: (§1) For the human skeletal myoblast (HSKM) differentiation induction test, human skeletal myoblasts (3×10^5 cells/well) were prepared in 24-well plates. Then, these cells were treated with the test substances and incubated in a 37° C., CO2 incubator for 48 hours. After 24 and 48 hours of incubation, the cell culture supernatant was collected into an E-tube and stored in a deep freezer. For ELISA analysis, the supernatant was thawed and prepared. ELISA analysis was performed based on the test method presented in the ELISA kit.

GDF-8/Myostatin [1] = assay: Human skeletal myoblast (HSKM) differentiation induction test, ELISA of culture supernatant: GDF-8/Myostatin; format: cell-based; conditions: compared to IGF-1 and (R)-phenylpiracetam treatment groups, FIG. 4
Protocol: as §1

[2] = system: MAO-B (Monoamine oxidase-B); assay: mRNA expression by real-time PCR in MPTP-treated SH-SY5Y cells: MAO-B; format: cell-based, human; conditions: 2.5 mM MPTP, compared to MPTP alone, FIG. 6(a)
Protocol: (§2) After inducing an inflammatory response by treating a human neuroblastoma SH-SY5Y cell line with 2.5 mM MPTP (1-methyl-4-phenyl-1,2,3,6-tetrahydropyridine), the mRNA expression of SYP (synaptophysin), GAP-43 (Growth-associated protein-43), MAO-B (Monoamine oxidase-B), and iNOS (inducible nitric oxide synthase) was confirmed by real-time PCR.

[3] = system: Parkinson's disease mouse MPTP model; assay: Forced swim test (FST); format: in vivo; conditions: MPTP mice, FIG. 8; for immobility time in the forced swim test: ip 30 minutes before the test, compared to the MPTP alone treatment group
Protocol: (§3) Six-month-old normal mice were acclimated for one week, trained for behavioral testing, and then randomly divided into groups. To construct a Parkinson's disease mouse MPTP model, mice were treated with the chiral gamma-lactam derivative of the present disclosure or a pharmaceutically acceptable salt thereof (dissolved in 0.9% saline, intraperitoneally injected (ip)) for 3 days, and then were treated with MPTP (dissolved in 0.9% saline, ip) for 5 consecutive days. […] For the control mice group, the same volume of saline solution (ip) was provided. Two days after the last injection, the efficacy was confirmed by an open field test (OFT), forced swim test (FST), rotarod test, and pilocarpine-induced seizure evaluation.
The forced swim test (FST) was performed to induce depressive behavior in mice. (1) First, a 2 L beaker was filled with water (25±1° C.) until the water was about 10 cm deep, and the mouse was allowed to swim. The mouse was returned to the breeding cage after 6 minutes. (2) The restraint stress group was confined in a restraint tube for 90 minutes until 60 minutes before the forced swim test was to be performed, and then the mouse was allowed to swim as mentioned in (1). Thereafter, the mouse was returned to the breeding cage. (3) In this case, the chiral gamma-lactam derivative of the present disclosure or a pharmaceutically acceptable salt thereof (saline, test drug) was injected into the abdominal cavity 30 minutes before the forced swim test was performed. Immobility time was measured for 4 minutes out of the 6 minutes and these measurements were compared between groups.

GDF-8/Myostatin [4] = assay: Expression of the sarcopenia-related marker GDF-8/Myostatin in mouse serum; format: in vivo; conditions: MPTP mice, 15 mg/kg ip twice a week for 5 weeks, FIG. 11; for expression level of GDF-8/Myostatin in mouse serum: compared to IGF-1 and (R)-phenylpiracetam treatment groups
Protocol: MPTP was injected intraperitoneally into the mouse at a concentration of 30 mg/kg for 5 consecutive days. One week after the MPTP was injected, the chiral gamma-lactam derivative of the present disclosure or a pharmaceutically acceptable salt thereof (Ph-10, 20, 30) was administered intraperitoneally to the mouse at a concentration of 15 mg/kg twice a week, for 5 weeks, and the changes in the expression level of GDF-8/Myostatine, a sarcopenia-related marker in mouse serum, were determined.

[5] = system: GAP-43 (Growth-associated protein-43); assay: mRNA expression by real-time PCR in MPTP-treated SH-SY5Y cells: GAP-43; format: cell-based, human; conditions: 2.5 mM MPTP, compared to MPTP alone, FIG. 6(a)
Protocol: as §2

[6] = system: Parkinson's disease mouse MPTP model; assay: Rotarod test (latency to fall), 5 weeks; format: in vivo; conditions: MPTP mice; for motility in the rotarod test (latency to fall): compared to the control group and the MPTP alone treatment group, FIG. 9(a)
Protocol: as §3
(§4) To evaluate the walking and motor abilities of the lower extremities of mice, a rotarod test was performed for 5 weeks. Motor coordination and balance were assessed by placing the mice on a rotating bar and measuring the time until they fell therefrom (latency to fall). MPTP was injected intraperitoneally into the mice at a concentration of 30 mg/kg for 5 consecutive days. One week after the MPTP was injected, MPTP was administered to the mice intraperitoneally (15 mg/kg) twice a week. The rotarod consists of a rotatable cylindrical rod with a diameter of 7 cm, located at a height of 60 cm and six baffles spaced at 15 cm intervals. Then, mice were placed on the rod while the rod was rotated for 180 seconds at a speed of 5 to 50 rpm (maximum speed) and the latency to fall was measured. At this time, the mice were sufficiently trained to be acclimated during the experimental period.

[7] = system: tibialis anterior (TA) and extensor digitorum longus (EDL) muscle; assay: Muscle weight after the five-week rotarod test; format: in vivo; conditions: MPTP mice, after five weeks; for tibialis anterior (TA) muscle weight: FIG. 9(b); for extensor digitorum longus (EDL) muscle weight: FIG. 9(c)
Protocol: as §4

[8] = system: iNOS (inducible nitric oxide synthase); assay: mRNA expression by real-time PCR in MPTP-treated SH-SY5Y cells: iNOS; format: cell-based, human; conditions: 2.5 mM MPTP, compared to MPTP alone, FIG. 6(a)
Protocol: as §2

[9] = system: Parkinson's disease mouse MPTP model; assay: Open field test (OFT); format: in vivo, mice; conditions: for total distance moved in the open field test: 10 mg/kg, compared to (R)-phenylpiracetam, MPTP alone and Selegiline treatment groups
Protocol: as §3
To measure general motor activity levels and behavioral anxiety of the mice, an open field test was performed. (1) First, 30 minutes before performing the open field test, the chiral gamma-lactam derivative of the present disclosure or a pharmaceutically acceptable salt thereof and a vehicle (saline, test drug) were injected intraperitoneally to the mice and their behavior was video recorded for 10 minutes. (2) Video analysis was used to check for sedation and measure the distance the mice moved.

HEK293T cell line = assay: Intracellular Ca2+ concentration by confocal laser scanning microscopy (CLSM), Fluo-3-AM; format: cell-based, human; conditions: HEK293T cells; for Ca2+ release performance: compared to the control rasagiline and the comparator (R)-phenylpiracetam, FIGS. 2 and 3
Protocol: To detect intracellular Ca^2+ levels, the HEK293T cell line, human renal epithelial cells, were seeded in 35 mm diameter confocal dishes 24 hours before the experiment and then were cultured to 40-60% confluency. The cells were loaded with […] fluorescent […] calcium indicator Fluo-3-acetoxymethyl (Fluo-3-AM; Invitrogen) for 30 min at 37° C. The concentration of Ca^2+ was determined using CLSM (Zeiss LSM 700 Meta; Zeiss, Oberkochen, Germany). […] The excitation and emission wavelengths for signal detection were 488 nm and 515 nm, respectively. Analysis of intracellular calcium intensity was performed using Zen software (Carl Zeiss).

SYP (synaptophysin) = assay: mRNA expression by real-time PCR in MPTP-treated SH-SY5Y cells: SYP; format: cell-based, human; conditions: 2.5 mM MPTP, compared to MPTP alone, FIG. 6(a)
Protocol: as §2

SMAD3 = assay: Human skeletal myoblast (HSKM) differentiation induction test, ELISA: SMAD3; format: cell-based; conditions: compared to (R)-phenylpiracetam treatment group, FIG. 5(b)
Protocol: as §1

[10] = system: pilocarpine-induced seizure mouse model; assay: Evaluation of pilocarpine-induced seizures; format: in vivo; conditions: male C57BL/6J mice, 15 mg ip 25 minutes before pilocarpine 330 mg/kg, monitored for 24 hours; compared to the control group; FIG. 10
Protocol: A pilocarpine-induced seizure mouse model was created to study changes in brain activity. Pilocarpine is an agonist that binds to muscarinic cholinergic receptors in nerve cells and increases cell activity, and is used to create a mesial temporal lobe epilepsy model.
The present experiment was performed on surgically operated-on male C57BL/6J mice under a constant environmental condition (24-25° C., 50-60% humidity, 12-hour light/dark cycle). […] Pilocarpine (Sigma, Deisenhofen, Germany) was injected intraperitoneally into the mouse at a single dose of 330 mg/kg, and behavioral and electrophysiological seizure patterns were monitored for 24 hours. […]
The seizure patterns were divided into the following five types, and cases (4) and (5) were defined as convulsive seizures and analyzed for their frequency and duration: (0) no convulsive behavior; (1) facial clonus; (2) head nodding; (3) forelimb clonus; (4) rearing: animal in a standing posture aided by tail and the laterally spread hindlimbs showing increased tone; (5) rearing and falling back.

[11] = system: human neuroblastoma SH-SY5Y cell line; assay: Fluorescence microscopy of Ca2+ and superoxide anions in MPTP-treated SH-SY5Y cells; format: cell-based; conditions: SH-SY5Y after the MPTP treatment; FIG. 6(b)

SMILES	SMAD2 level (SMAD2)	GDF-8/Myostatin level (GDF-8/Myostatin [1])	mRNA expression of MAO-B [2]	immobility time in the forced swim test [3]	expression level of GDF-8/Myostatin in mouse serum (GDF-8/Myostatin [4])	motility in the rotarod test (latency to fall) [6]	tibialis anterior (TA) muscle weight [7]	extensor digitorum longus (EDL) muscle weight [7]	mRNA expression of iNOS [8]	total distance moved in the open field test ([9]; MPTP mice, ip, FIG. 7(b))	Ca2+ release performance (HEK293T cell line)	mRNA expression of SYP (SYP (synaptophysin))	SMAD3 level (SMAD3)	total number of convulsive seizures [10]	also measured
NNC(=O)CN1C[C@@H](c2ccccc2)CC1=O [Ph-10, (R)-2-(2-oxo-4-phenylpyrrolidin-1-yl)acetohydrazide hydrochloride]	effective performance	performed equally or better	significantly reduced	much shorter	relatively lower	motility was increased	increased by statistically significant levels	increased by statistically significant levels	significantly reduced	increased	far superior	significantly increased	effective performance	–	mRNA expression of GAP-43 [5]: significantly increased
Cl.NC(=O)CN1C[C@H](c2ccccc2)CC1=O [Ph-20, (S)-2-(2-oxo-4-phenylpyrrolidin-1-yl)acetamide hydrochloride]	effective performance	performed equally or better	–	much shorter	relatively lower	motility was increased	increased by statistically significant levels	increased by statistically significant levels	–	increased	far superior	significantly increased	effective performance	effectively reduced	–
Cl.NC(=O)CN1C[C@@H](c2ccccc2)CC1=O [Ph-30, (R)-2-(2-oxo-4-phenylpyrrolidin-1-yl)acetamide hydrochloride]	lowered the SMAD2 and SMAD3 levels the most	reduced GDF-8/Myostatin level the most	significantly reduced	much shorter	relatively lower	motility was increased	increased by statistically significant levels	increased by statistically significant levels	significantly reduced	increased	far superior	significantly increased	lowered the SMAD2 and SMAD3 levels the most	significantly lower	immobility time in the forced swim test compared to the untreated control group (saline) [3]: lower immobility time than the untreated control group; expression level of GDF-8/Myostatin in mouse serum, comparison among the Ph compounds (chirality) (GDF-8/Myostatin [4]): lowest expression levels; efficacy in the rotarod test compared to the Ph-20 compound ([6]; FIG. 9): approximately twice the efficacy; Ca2+ (fluorescence microscopy) [11]: significantly increased; superoxide anions (fluorescence microscopy) [11]: significantly reduced; total distance moved relative to the MPTP alone treatment group ([9]; MPTP mice, ip, FIG. 7(b)): approximately three times higher; distance moved in the open field test ([9]; mice, ip, 5, 10 and 15 mg/kg, compared to the control group, FIG. 7(a)): increased compared to the control group at all concentrations; calcium release performance difference, (R)-type Ph-30 compared to (S)-type Ph-20 (HEK293T cell line): ≥ 2 times; time at which the intensity of intracellular calcium was highest (HEK293T cell line; CLSM, FIG. 1 (Ph-30)): 18 s
NC(=O)CN1C[C@@H](c2ccccc2)CC1=O [phenylpiracetam, (R)-phenylpiracetam, reference compound]	–	–	–	reduced immobility time	–	–	–	–	–	–	–	–	–	–	–
